Data set [1] in a line: Determination of compound Cmax and AUC after oral gavage (plasma LC-MS/MS). The conditions noted are these: Sprague-Dawley, rat, plasma, po. It counts as in vivo, Sprague-Dawley rats. How it is done:
Sprague-Dawley rats were orally gavaged with test article at a nominal dose of 2.5 or 10 mg/kg and blood was collected at 0.5, 1, 2 and 4 h. Blood samples were processed to plasma using K2EDTA as an anticoaglulant. Plasma samples were treated with acetonitrile containing an internal standard, precipitated proteins removed by centrifugation. Supernatants were analyzed by LC-MS/MS and compound concentrations were determined by interpolation from a standard curve prepared in plasma. All compounds were orally dosed at the dosage shown, and pharmacokinetic parameters determined.
(§1) Sprague-Dawley rats were orally gavaged with test article at a nominal dose of 2.5 or 10 mg/kg and blood was collected at 0.5, 1, 2 and 4 h. Blood samples were processed to plasma using K2EDTA as an anticoaglulant. Plasma samples were treated with acetonitrile containing an internal standard, precipitated proteins removed by centrifugation. Supernatants were analyzed by LC-MS/MS and compound concentrations were determined by interpolated from a standard curve prepared in plasma. All compounds were orally dosed at the dosage shown, and pharmacokinetic parameters determined.
as §1

A further data set concerns the target T1, rat NaP2b (SLC34A2) (Rattus norvegicus, UniProt Q9JJ09).
T1 construct: host or cells: HEK293
T1 sequence (Q9JJ09 1-695): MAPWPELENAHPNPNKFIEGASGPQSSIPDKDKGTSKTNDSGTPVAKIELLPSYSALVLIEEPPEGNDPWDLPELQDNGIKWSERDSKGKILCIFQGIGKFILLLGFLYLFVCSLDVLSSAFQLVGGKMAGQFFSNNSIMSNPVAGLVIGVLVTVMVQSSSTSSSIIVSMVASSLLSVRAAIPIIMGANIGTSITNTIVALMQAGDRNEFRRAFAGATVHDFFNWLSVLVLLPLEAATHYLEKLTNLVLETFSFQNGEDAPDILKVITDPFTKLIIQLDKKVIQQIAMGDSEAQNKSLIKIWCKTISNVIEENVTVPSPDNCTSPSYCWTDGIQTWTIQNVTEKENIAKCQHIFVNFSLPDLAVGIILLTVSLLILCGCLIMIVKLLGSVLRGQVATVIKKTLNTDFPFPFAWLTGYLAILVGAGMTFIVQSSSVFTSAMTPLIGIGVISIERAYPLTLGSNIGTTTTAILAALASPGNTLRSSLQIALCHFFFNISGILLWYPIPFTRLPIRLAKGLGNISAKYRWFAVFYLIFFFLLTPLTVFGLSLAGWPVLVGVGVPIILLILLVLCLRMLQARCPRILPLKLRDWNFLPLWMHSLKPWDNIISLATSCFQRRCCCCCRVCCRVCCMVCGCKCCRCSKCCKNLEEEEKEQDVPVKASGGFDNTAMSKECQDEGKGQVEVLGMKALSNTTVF
Nature of the data set: Inhibition of NaP2b-mediated Pi (33P) uptake in transfected HEK293 cells, rat NaP2b. It counts as cell-based. The conditions noted are these: 33P Pi uptake, 0.1 mM phosphate, value given as pIC50 range. A digest of the protocol:
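HEK293 cells were transiently transfected with NaP2b cDNA using Lipofectamine and grown near confluence. Compounds were tested at twelve concentrations from 0.1 nM to 30 uM in duplicate, and 33P-phosphate uptake was counted by scintillation after lysis. Results are expressed as pIC50.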

[2] abbreviates: Structure (I) examples, Table 15, actual oral dose 3-15 mg/kg, plasma 0.5-4 h.
Setting [3] is: Structure (II) examples, Table 6, actual oral dose 7.6-11 mg/kg.
Setting [4] is: Structure (III) examples, Table 6, actual oral dose 8.9-10 mg/kg.

SMILES strings stand for the structures.

On to `O=C(O)CCSCc1cccc(C(=O)Nc2ccc(N3CCCCC3)cc2-c2cc(C(=O)NCc3cccc(C(F)(F)F)c3)ccn2)c1` [Example 1.1, 3-(3-((2-(4-((3-(Trifluoromethyl)benzyl)carbamoyl)pyridin-2-yl)-4-(piperidin-1-yl)phenyl)carbamoyl)benzylthio)propanoic acid], for which, in data set [1] (setting [2]), the AUC (commonly concentration integrated over time) was more than 50 ng·h/mL and the Cmax – broadly, the peak of the concentration-time curve – is less than 50 ng/mL.

In data set [1] (setting [3]), `O=C(O)CCSCc1cccc(C(=O)Nc2ccc(N3CCCCC3)cc2C(=O)Nc2ccn(-c3cccc(C(F)(F)F)c3)n2)c1` [Example 7] came in with an AUC of 467 ng·h/mL and a Cmax of 393 ng/mL.

Regarding `CN(CCN1CCOCC1)C(=O)c1cccc(C(=O)Nc2ccc(N3CCCCC3)cc2C(=O)Nc2ccn(-c3cccc(C(F)(F)F)c3)n2)c1` [Example 11], in data set [1] (setting [3]), the AUC was 9.8 ng·h/mL and the Cmax stood at 5 ng/mL.

As for `CN(CCN1CCOCC1)C(=O)c1cccc(C(=O)Nc2ccc(N3CCCCC3)cc2C(=O)Nc2cnc(-c3ccccc3)nc2)c1` [Example 11], in data set [1] (setting [4]), the area under the curve (AUC) turned out to be 140 ng·h/mL and the Cmax is 70 ng/mL.

On to `CN(CCOCCOCCOCCC(=O)O)C(=O)c1cccc(C(=O)Nc2ccc(N3CCCCC3)cc2C(=O)Nc2ccn(-c3cccc(C(F)(F)F)c3)n2)c1` [Example 15], for which, in data set [1] (setting [3]), the AUC was 11 ng·h/mL and the Cmax worked out at 10 ng/mL.

In data set [1] (setting [2]), `CN(CCN1CCOCC1)C(=O)c1cccc(C(=O)Nc2ccc(OC3CCC3)cc2-c2cc(C(=O)NCc3cccc(C(F)(F)F)c3)ccn2)c1` [Example 26] gave an AUC of less than 30 ng·h/mL and a Cmax of less than 30 ng/mL.

Turning to `O=C(O)CCOCCOCCOCCNC(=O)Cc1cccc(SCc2cccc(C(=O)Nc3ccc(N4CCCCC4)cc3C(=O)Nc3ccn(-c4cccc(C(F)(F)F)c4)n3)c2)c1` [Example 26], in data set [1] (setting [3]), the highest level (Cmax) was 3 ng/mL.

Regarding `O=C(O)CCCNC(=O)Cc1cccc(SCc2cccc(C(=O)Nc3ccc(N4CCCCC4)cc3-c3cc(C(=O)NCc4cccc(C(F)(F)F)c4)ccn3)c2)c1` [Example 141], the IC50 (as a rule, the point on the concentration scale where inhibition reaches its midpoint) against rat NaP2b (SLC34A2) is 1000 to 7940 nM. In data set [1] (setting [2]), this compound returned an AUC of more than 50 ng·h/mL and a Cmax of more than 50 ng/mL.

For `COCCOCCOCCOCCOCCOCCOCCOCCNC(=O)[C@@H]1CCCN1CCN(C)C(=O)c1cccc(C(=O)Nc2ccc(N3CCCCC3)cc2-c2cc(C(=O)N[C@H]3CCCc4ccccc43)ccn2)c1` [Example 195, N^1-(2-((S)-2-(2,5,8,11,14,17,20,23-octaoxapentacosan-25-ylcarbamoyl)pyrrolidin-1-yl)ethyl)-N-methyl-N^3-(4-(piperidin-1-v)-2-(4-(((S)-1,2,3,4-tetrahydronaphthalen-1-yl)carbamoyl)pyridin-2-yl)phenyl)isophthalamide], the half-inhibitory concentration (IC50) on rat NaP2b (SLC34A2) is 1000 to 7940 nM. In addition, in data set [1] (setting [2]), the AUC is less than 10 ng·h/mL and the Cmax is less than 10 ng/mL.

Take `COCCN(C)C(=O)N1CCN(CCN(C)C(=O)c2cccc(C(=O)Nc3ccc(N4CCCCC4)cc3-c3cc(C(=O)NCc4cccc(C(F)(F)F)c4)ccn3)c2)CC1` [Example 211, N1-(2-(4-((2-methoxyethyl)(methyl)carbamoyl)piperazin-1-yl)ethyl)-N1-methyl-N3-(4-(piperidin-1-yl)-2-(4-(3-(trifluoromethyl)benzylcarbamoyl)pyridin-2-yl)phenyl)isophthalamide]: on rat NaP2b (SLC34A2), the IC50 is 1000 to 7940 nM. In data set [1] (setting [2]), this compound registered an AUC of less than 30 ng·h/mL and a Cmax of less than 10 ng/mL.

On rat NaP2b (SLC34A2), `CN(C)C(=O)C1CCN(CCN(C)C(=O)c2cccc(C(=O)Nc3ccc(N4CCCCC4)cc3-c3cc(C(=O)N[C@H]4CCCc5ccccc54)ccn3)c2)CC1` [Example 218, (S)—N1-(2-(4-(dimethylcarbamoyl)piperidin-1-yl)ethyl)-N1-methyl-N3-(4-(piperidin-1-yl)-2-(4-(1,2,3,4-tetrahydronaphthalen-1-ylcarbamoyl)pyridin-2-yl)phenyl)isophthalamide] had an IC50 of 1000 to 7940 nM. In data set [1] (setting [2]), the AUC was less than 30 ng·h/mL and the Cmax was less than 10 ng/mL.

As for `CN(CCOCCOCCOCCC(=O)O)C(=O)c1cccc(C(=O)Nc2ccc(N3CCCCC3)cc2-c2cc(C(=O)N[C@H]3CCCc4ccccc43)ccn2)c1` [Example 249, 3-[2-(2-{2-[N-methyl-1-(3-{[4-(piperidin-1-yl)-2-(4-{[(1S)-1,2,3,4-tetrahydronaphthalen-1-yl]carbamoyl}pyridin-2-yl)phenyl]carbamoyl}phenyl)formamido]ethoxy}ethoxy)ethoxy]propanoic acid], on rat NaP2b (SLC34A2), the IC50 was 1000 to 7940 nM. For the same compound, in data set [1] (setting [2]), the AUC is less than 30 ng·h/mL and the Cmax is less than 10 ng/mL.

`CCN(CC)c1ccc(NC(=O)c2cccc(C(=O)N(C)CCN(C)CCOCCOCCOCCNC(=O)c3ccc(O)cc3)c2)c(-c2cc(C(=O)N[C@H]3CCCc4ccccc43)ccn2)c1` [Example 345, (S)—N^1-(4-(Diethylamino)-2-(4-(1,2,3,4-tetrahydronaphthalen-1-ylcarbamoyl)pyridin-2-yl)phenyl)-N^3-(1-(4-hydroxyphenyl)-14-methyl-1-oxo-5,8,11-trioxa-2,14-diazahexadecan-16-yl)-N^3-methylisophthalamide] gave a 50% inhibitory concentration (IC50) at rat NaP2b (SLC34A2) of 1000 to 7940 nM.

Consider `CCN(CC)c1ccc(NC(=O)c2cccc(C(=O)N(C)CCN(C)CCOCCOCCOCCNC(=O)C(C)(C)C)c2)c(-c2cc(C(=O)NCc3cccc(C(F)(F)F)c3)ccn2)c1` [Example 346, N2-(4-(diethylamino)-2-(4-(3-(trifluoromethyl)benzylcarbamoyl)pyridin-2-yl)phenyl)-N^3-methyl-N^3-(3,17,17-trimethyl-16-oxo-6,9,12-trioxa-3,15-diazaoctadecyl)isophthalamide], for which the “pIC50 range for rat Nap2b” value against rat NaP2b (SLC34A2) is listed as 5.1-6.0.

Compound `O=C(O)CCOCCOCCOCCOCCCc1cccc(C(=O)Nc2ccc(OC3CCCC3)cc2-c2cc(C(=O)N[C@H]3CCCc4ccccc43)ccn2)c1` [Example 347, (S)-16-(3-(4-(cyclopentyloxy)-2-(4-(1,2,3,4-tetrahydronaphthalen-1-ylcarbamoyl)pyridin-2-yl)phenylcarbamoyl)phenyl)-4,7,10,13-tetraoxahexadecan-1-oic acid] showed an IC50 against rat NaP2b (SLC34A2) of less than 1000 nM.
